In brackets after ≈: the same amount, converted by molar mass. Read-outs that look alike come from different tables or passages of the source.
Key:
CgDHFR = CgDHFR (Candida glabrata (strain ATCC 2001 / BCRC 20586 / JCM 3761 / NBRC 0622 / NRRL Y-65 / CBS 138) (Yeast) (Nakaseomyces glabratus), UniProt Q6FPH0); experiment: biochemical; details: for Selectivity: Table 7, hDHFR vs CgDHFR
Text: CgDHFR: The gene coding CgDHFR was amplified by PCR from C. glabrata genomic DNA obtained from ATCC. The gene was inserted in a pET41 vector that includes a C-terminal histidine tag for nickel affinity chromatography. E. coli cells were transformed and the resulting plasmid was verified by sequencing. The protein was expressed in E. coli BL21(DE3) cells with isopropyl β-D-thiogalactoside induction. Following growth, the cells were lysed with BugBuster (Novagen) and centrifuged; the supernatant was loaded on a Ni-NTA column. The column was washed with 20 mM Tris (pH 8.0)/0.4 M NaCl and the protein was eluted using a gradient of 20 mM Tris (pH 8.0), 0.3 M NaCl, 20% glycerol, 0.1 mM EDTA, 2 mM DTT, 250 mM imidazole. Fractions containing CgDHFR were identified by SDS-PAGE, combined and desalted using a PD-10 column with a buffer containing 20 mM Tris pH 8.0, 20% glycerol, 0.1 mM EDTA and 2 mM DTT. The protein was concentrated to 13 mg/mL.
(§1) Enzyme and inhibitor were allowed to incubate for 5 min before adding dihydrofolate to initiate the reaction. Enzyme assays were performed at least four times. IC50 values and their standard deviations were calculated in the presence of varying concentrations of inhibitor near the IC50 concentration.

C. glabrata = experiment: Antifungal assay (MIC, Alamar Blue); format: cell-based, Candida glabrata; details: for MIC (Cg): YM media
Description: Antifungal assays were performed using C. glabrata as a suspension in 50% glycerol at −78° C. For susceptibility testing, a streak of stock culture was made on SDA agar and grown at 30° C. for 48 h. One pure colony of the test organism was recovered from the plate, suspended in appropriate media and grown in a 5 mL shake flask culture. A sample of the shake flask culture was diluted to 1×10^5 cells/mL in media and added to 96-well test plates (100 μL per well) containing test compounds dispensed in DMSO (1 μL). Amphotericin and ketoconazole were used as controls. After an incubation period determined from the strain specific doubling time, Alamar Blue (10 μL) was added, allowed to incubate; each well was scored for dye reduction.
Several representative compounds were also evaluated in thymidine-depleted media. It has been shown that high levels of thymidine interfere with accurate susceptibility testing of antifolates. To compensate for this, antifolates are frequently evaluated in a controlled minimal media with a low thymidine concentration. […] In addition, the compounds were also evaluated for mammalian cell toxicity using MCF-10 and HepG2 cell lines. Cellular selectivity is reported as the IC50 value for the MCF-10 human cell line divided by the MIC value (μg/mL) (Table 8).

ChDHFR-TS = ChDHFR-TS (Cryptosporidium hominis, UniProt Q27552); experiment: ChDHFR enzyme inhibition assay; format: biochemical
ChDHFR-TS, sequence (Q27552 1-521): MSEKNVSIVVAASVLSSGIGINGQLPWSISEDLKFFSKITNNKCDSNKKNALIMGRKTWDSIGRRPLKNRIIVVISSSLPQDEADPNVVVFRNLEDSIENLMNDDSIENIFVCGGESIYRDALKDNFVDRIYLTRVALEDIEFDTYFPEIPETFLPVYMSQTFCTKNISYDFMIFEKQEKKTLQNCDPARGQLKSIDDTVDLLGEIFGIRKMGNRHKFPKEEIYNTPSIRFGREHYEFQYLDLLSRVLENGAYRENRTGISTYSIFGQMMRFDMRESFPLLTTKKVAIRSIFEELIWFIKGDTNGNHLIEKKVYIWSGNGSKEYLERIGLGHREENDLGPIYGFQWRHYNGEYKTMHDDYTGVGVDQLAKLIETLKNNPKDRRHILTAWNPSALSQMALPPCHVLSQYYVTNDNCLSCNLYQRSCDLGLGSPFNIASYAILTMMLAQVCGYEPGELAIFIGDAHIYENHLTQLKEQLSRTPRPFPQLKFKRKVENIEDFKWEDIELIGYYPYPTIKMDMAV
Description: as §1
Compounds were evaluated in spectrophotometric enzyme assays using ChDHFR-TS and hDHFR. Inhibition constants (IC50) were measured (see Table 4). […] The compound abbreviations in Table 4 refer to the following compounds: […]

hDHFR = hDHFR (Homo sapiens (Human), UniProt P00374); experiment: hDHFR enzyme inhibition assay; format: biochemical; details: read-out: IC50 (hDHFR)
hDHFR, sequence (P00374 whole entry): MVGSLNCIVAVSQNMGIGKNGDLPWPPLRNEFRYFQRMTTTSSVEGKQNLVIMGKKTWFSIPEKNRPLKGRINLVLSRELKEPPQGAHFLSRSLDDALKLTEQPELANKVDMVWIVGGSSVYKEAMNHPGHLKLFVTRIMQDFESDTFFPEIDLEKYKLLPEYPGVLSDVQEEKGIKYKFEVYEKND
Description: hDHFR: The gene for hDHFR was amplified using PCR from cDNA obtained from ATCC. The gene was inserted in a pET41 vector with a C-terminal histidine tag for affinity chromatography. The resulting construct was verified by sequencing. The hDHFR protein was expressed in E. coli and purified using a nickel affinity column.
as §1
(§2) Enzyme inhibition assays were performed by monitoring the rate of NADPH oxidation by the DHFR enzyme at an absorbance of 340 nm. Assays were performed in the presence of saturating concentrations of NADPH and initiated with dihydrofolate. All assays were completed at 25° C. in a buffer containing 20 mM TES pH 7.0, 50 mM KCl, 10 mM 2-mercaptoethanol, 0.5 mM EDTA and 1 mg/mL BSA. Inhibition was measured at least three times with inhibitor concentrations near the IC50 value and the average IC50 value is reported with a standard deviation.

S. aureus 13709 (MRSA) = experiment: Antibacterial MIC, broth microdilution with Alamar Blue; format: cell-based, Staphylococcus aureus; details: for MIC MRSA: Table 6
Description: (§3) For susceptibility testing, 10 μL of glycerol stock was suspended in a 10 mL shake flask culture of chemically defined Isosensitest broth (Oxoid) supplemented with 2% w/v glucose. A sample of the shake flask culture was diluted to 1×10^6 cells/mL in media and added to 96-well test plates (100 μL per well) containing test compounds dispensed in DMSO (2 μL). After an incubation period (30° C.) determined from the strain specific doubling time, a 0.03% w/v aqueous solution of resazurin (10 μL) was added and the plates were allowed to incubate; each well was then scored for dye reduction.

Streptococcus pyogenes = experiment: as above; format: cell-based
Description: as §3

MCF-10 cells = experiment: Mammalian cell toxicity, MCF-10; format: cell-based, human; details: cytotoxicity, Table 6
Description: Adherent cell lines were maintained in Eagle's Minimal Essential Media (Sigma-Aldrich, St. Louis, Mo., USA) with 2 mM glutamine and Earle's Balanced Salt Solution (HyClone, Logan, Utah, USA) adjusted to contain 1.5 g/L sodium bicarbonate, 0.1 mM non-essential amino acids, 1 mM sodium pyruvate and 10% fetal calf serum. Fetal calf serum used in these assays was lot matched throughout. […] Toxicity assays were conducted between passages 10-20. Target compound toxicity was measured by incubating the test compound with the cells for 4 h, washing the cells and finally treating the cells with Alamar Blue. After 12-24 h, the fluorescence of the reduced dye was measured. Fluorescence intensity as a function of test compound concentration was fit to the Fermi equation, using non-linear least squares regression analysis, to estimate IC50 values.

S. aureus DHFR = S. aureus DHFR (Staphylococcus aureus, UniProt P0A017); format: biochemical; details: average of at least three measurements
Description: as §2

S. pyogenes DHFR = S. pyogenes DHFR (Streptococcus pyogenes, UniProt Q9A091); experiment: S. pyogenes DHFR enzyme inhibition assay; format: biochemical; details: average of at least three measurements
S. pyogenes DHFR, sequence (Q9A091 1-165): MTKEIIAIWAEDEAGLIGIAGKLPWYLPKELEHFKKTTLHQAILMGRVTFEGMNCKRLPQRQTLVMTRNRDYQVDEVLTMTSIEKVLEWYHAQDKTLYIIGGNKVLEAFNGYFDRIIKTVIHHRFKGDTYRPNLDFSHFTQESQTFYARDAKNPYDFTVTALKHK
Description: as §2

[1] = C. glabrata, Inact: not active at 2 mM (~600 μg/mL)
[2] = Table 7, read-out: IC50 (CgDHFR)
[3] = Table 4, read-out: IC50 (ChDHFR)
[4] = Table 11, read-out: CgDHFR IC50

CgDHFR, sequence (Q6FPH0 1-217): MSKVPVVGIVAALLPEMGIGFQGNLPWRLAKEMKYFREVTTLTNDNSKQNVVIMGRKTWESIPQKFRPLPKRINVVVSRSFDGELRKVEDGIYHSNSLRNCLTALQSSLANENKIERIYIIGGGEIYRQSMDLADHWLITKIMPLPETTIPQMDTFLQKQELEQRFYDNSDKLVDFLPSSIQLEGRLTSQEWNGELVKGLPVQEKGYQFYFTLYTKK

SMILES: COc1cc(C(C#Cc2c(C)nc(N)nc2N)OC)cc(OC)c1OC (stereo not shown) [Compound 8, 5-[3-methoxy-3-(3,4,5-trimethoxyphenyl)prop-1-yn-1-yl]-6-methylpyrimidine-2,4-diamine]
- IC50 (CgDHFR; CgDHFR IC50, Table 3): 30 nM
- Antifungal activity MIC (C. glabrata; [1]): Inact

SMILES: CN(Cc1cnc2nc(N)nc(N)c2n1)c1ccc(C(=O)N[C@@H](CCC(=O)O)C(=O)O)cc1 [methotrexate, (S)-2-(4-(((2,4-diaminopteridin-6-yl)methyl)methylamino)benzamido)pentanedioic acid, reference compound]
- IC50 (ChDHFR-TS; IC50 against ChDHFR): 23 nM

SMILES: CCC(c1cc(OC)c(OC)c(OC)c1)c1cnc(N)nc1N (racemic) [C7-ethyl TMP (rac), reference compound]
- IC50 (ChDHFR-TS; read-out: IC50 against ChDHFR): 4000 nM

SMILES: CCc1nc(N)nc(N)c1C#CC(C)c1cc(OC)cc(N2C[C@@H](C)O[C@@H](C)C2)c1 (mixture of isomers) [Compound 157]
- IC50 (hDHFR; Table 7): 200 ± 4.5 nM
- Selectivity (CgDHFR): 5.0 ± 1
- IC50 (CgDHFR; [2]): 38 ± 2 nM
- MIC (Cg) (C. glabrata; C. glabrata): 13 µg/mL (≈ 31.7 µM)

SMILES: COc1cc(C(C)C#Cc2cnc(N)nc2N)cc(OC)c1OC (stereo not shown) [Compound 2, 2,4-Diamino-5-(3-(3,4,5-trimethoxyphenyl)but-1-ynyl)pyrimidine]
- IC50 (CgDHFR; Table 3, read-out: CgDHFR IC50): 36 nM
- Antifungal activity MIC (C. glabrata; [1]): Inact

SMILES: CCc1nc(N)nc(N)c1C#CCc1cc(OC)ccc1OC [Compound 11]
- IC50 (CgDHFR; Table 3, read-out: CgDHFR IC50): 8.2 nM
- IC50 (CgDHFR; read-out: IC50 against CgDHFR): ≤ 25 nM
- Antifungal activity MIC (C. glabrata; [1]): 78 µg/mL

SMILES: COc1cc(-c2c(C(C)C)cccc2C(C)C)cc(C(C)C#Cc2c(C)nc(N)nc2N)c1 (stereo not shown) [Compound D26I, 5-[3-(5-methoxy-2′6′-diisopropylbiphenyl-3-yl)but-1-yn-1-yl]-6-methylpyrimidine-2,4-diamine]
- IC50 (ChDHFR-TS; [3]): 10 nM

SMILES: COc1cc(C(C)C#Cc2c(C)nc(N)nc2N)cc(N2CCN(C)CC2)c1 (stereo not shown) [Compound 158]
- IC50 (hDHFR; Table 7): 280 ± 17 nM
- Selectivity (CgDHFR): 9 ± 1
- IC50 (CgDHFR; [2]): 30 ± 3 nM
- MIC (Cg) (C. glabrata; C. glabrata): 95 µg/mL (≈ 250 µM)

SMILES: COc1cc(-c2ccccc2C)ccc1C(C)C#Cc1c(C)nc(N)nc1N (stereo not shown) [Compound F2M, 5-[3-(3-methoxy-2′-methylbiphenyl-4-yl)but-1-yn-1-yl]-6-methylpyrimidine-2,4-diamine]
- IC50 (ChDHFR-TS; IC50 (ChDHFR), Table 4): 36 ± 0.6 nM
- Selectivity Ratio (IC50 ChDHFR/IC50 hDHFR) (ChDHFR-TS; Table 4): 77

SMILES: COc1cc(-c2ccccc2C)cc(C(C)C#Cc2c(C)nc(N)nc2N)c1 (stereo not shown) [Compound D6M, 5-[3-(5-methoxy-6′-methylbiphenyl-3-yl)but-1-yn-1-yl]-6-methylpyrimidine-2,4-diamine]
- IC50 (ChDHFR-TS; [3]): 2.1 ± 0.3 nM

SMILES: COc1cc(-c2ccccc2)cc([C@H](C)C#Cc2c(C)nc(N)nc2N)c1 (single isomer, unassigned) [D (S), 5-[3-(5-methoxy-biphenyl-3-yl)but-1-yn-1-yl]-6-methylpyrimidine-2,4-diamine]
- IC50 (ChDHFR-TS; IC50 (ChDHFR), Table 4): 30 nM

SMILES: COc1cc(C(C)c2cnc(N)nc2N)cc(OC)c1OC (racemic) [C7-methyl TMP (rac), reference compound]
- IC50 (ChDHFR-TS; read-out: IC50 against ChDHFR): 340000 nM

SMILES: COc1ccc(OC)c(CC#Cc2c(C)nc(N)nc2N)c1 [Compound 10]
- IC50 (CgDHFR; Table 3, read-out: CgDHFR IC50): 32 nM
- Antifungal activity MIC (C. glabrata; [1]): 56 µg/mL

SMILES: COc1cc(C(O)C#Cc2c(C)nc(N)nc2N)cc(OC)c1OC (stereo not shown) [Compound 7, 3-(2,4-diamino-6-methylpyrimidin-5-yl)-1-(3,4,5-trimethoxyphenyl)prop-2-yn-1-ol]
- IC50 (CgDHFR; CgDHFR IC50, Table 3): 39 nM
- Antifungal activity MIC (C. glabrata; [1]): Inact

SMILES: COc1cc(-c2c(C)cccc2C)ccc1C(C)C#Cc1c(C)nc(N)nc1N (stereo not shown) [Compound F26M, 5-[3-(3-methoxy-2′6′-dimethylbiphenyl-4-yl)but-1-yn-1-yl]-6-methylpyrimidine-2,4-diamine]
- Selectivity Ratio (IC50 ChDHFR/IC50 hDHFR) (ChDHFR-TS; Table 4): 455
- IC50 (ChDHFR-TS; [3]): 7.4 ± 1.9 nM
- IC50 (hDHFR; Table 4): 3370 ± 15 nM

SMILES: COc1ccc(OC)c(CC#Cc2cnc(N)nc2N)c1 [Compound 9]
- IC50 (CgDHFR; Table 3, read-out: CgDHFR IC50): 21 nM
- IC50 (CgDHFR; read-out: IC50 against CgDHFR): ≤ 25 nM
- Antifungal activity MIC (C. glabrata; [1]): 72 µg/mL

SMILES: COc1cc(-c2c(C)cccc2C)cc(C(C)C#Cc2c(C)nc(N)nc2N)c1 (stereo not shown) [Compound D26M, 5-[3-(5-methoxy-2′6′-dimethylbiphenyl-3-yl)but-1-yn-1-yl]-6-methylpyrimidine-2,4-diamine]
- IC50 (ChDHFR-TS; [3]): 2.1 ± 0.5 nM

SMILES: COc1cc(C(O)C#Cc2cnc(N)nc2N)cc(OC)c1OC (stereo not shown) [Compound 3, 3-(2,4-diaminopyrimidin-5-yl)-1-(3,4,5-trimethoxyphenyl)prop-2-yn-1-ol]
- IC50 (CgDHFR; Table 3, read-out: CgDHFR IC50): 2700 nM
- MIC (C. glabrata; Nakaseomyces glabratus, C. glabrata, Inact: not active at 2 mM (~600 μg/mL), read-out: Antifungal activity MIC): 328 µg/mL (≈ 993 µM)

SMILES: COc1cc(C(C#Cc2cnc(N)nc2N)OC)cc(OC)c1OC (stereo not shown) [Compound 4, 5-[3-methoxy-3-(3,4,5-trimethoxyphenyl)prop-1-yn-1-yl]pyrimidine-2,4-diamine]
- IC50 (CgDHFR; Table 3, read-out: CgDHFR IC50): 450 nM
- Antifungal activity MIC (C. glabrata; [1]): Inact

SMILES: COc1cc(-c2cc(C)cc(C)c2)cc([C@@H](C)C#Cc2c(C)nc(N)nc2N)c1 [Compound 140]
- IC50 against CgDHFR (CgDHFR): subnanomolar
- IC50 (CgDHFR; [2]): 0.55 ± 0.3 nM
- IC50 (CgDHFR; [4]): 0.55 nM
- MIC (Cg) (C. glabrata; C. glabrata): 3.1 µg/mL (≈ 8.02 µM)
- Antifungal activity MIC (C. glabrata; Table 11, C. glabrata): 3 µg/mL
- MIC S. aureus / MRSA (S. aureus 13709 (MRSA)): 5.8 µg/mL (≈ 15 µM)
- MIC MRSA (S. aureus 13709 (MRSA)): 5.76 µg/mL (≈ 14.9 µM)
- MIC S. pyogenes (Streptococcus pyogenes): 0.1 µg/mL (≈ 0.259 µM)
- MIC S. pyogenes (Streptococcus pyogenes; Table 6): 0.097 µg/mL (≈ 0.251 µM)
- IC50 (MCF-10 cells): 47000 nM

SMILES: COc1cc(-c2ccc(C)cc2)cc([C@@H](C)C#Cc2c(C)nc(N)nc2N)c1 [Compound 141]
- IC50 against CgDHFR (CgDHFR): subnanomolar
- IC50 (CgDHFR; [2]): 0.6 ± 0.3 nM
- IC50 (CgDHFR; [4]): 0.6 nM
- MIC (Cg) (C. glabrata; C. glabrata): 1.5 µg/mL (≈ 4.03 µM)
- Antifungal activity MIC (C. glabrata; Table 11, C. glabrata): 1.5 µg/mL
- IC50 (S. aureus DHFR): 410 ± 36 nM
- IC50 (S. pyogenes DHFR): 350 ± 44 nM
- MIC MRSA (S. aureus 13709 (MRSA)): 0.71 µg/mL (≈ 1.91 µM)
- MIC S. pyogenes (Streptococcus pyogenes; Table 6): 0.024 µg/mL (≈ 0.0644 µM)
- IC50 (MCF-10 cells): 55000 nM
